37 molecules from patent US7951815B2, “Substituted 1,4,8-triazaspiro [4,5]decan-2-one compounds” (Gruenenthal GmbH, priority 2004, dated 2011) can be followed below.

The term Km denotes the concentration of substrate that gives half-maximal velocity. In general, inhibition refers to the drop in the measured response relative to a control, in per cent.

T1 sequence (P31652 whole entry): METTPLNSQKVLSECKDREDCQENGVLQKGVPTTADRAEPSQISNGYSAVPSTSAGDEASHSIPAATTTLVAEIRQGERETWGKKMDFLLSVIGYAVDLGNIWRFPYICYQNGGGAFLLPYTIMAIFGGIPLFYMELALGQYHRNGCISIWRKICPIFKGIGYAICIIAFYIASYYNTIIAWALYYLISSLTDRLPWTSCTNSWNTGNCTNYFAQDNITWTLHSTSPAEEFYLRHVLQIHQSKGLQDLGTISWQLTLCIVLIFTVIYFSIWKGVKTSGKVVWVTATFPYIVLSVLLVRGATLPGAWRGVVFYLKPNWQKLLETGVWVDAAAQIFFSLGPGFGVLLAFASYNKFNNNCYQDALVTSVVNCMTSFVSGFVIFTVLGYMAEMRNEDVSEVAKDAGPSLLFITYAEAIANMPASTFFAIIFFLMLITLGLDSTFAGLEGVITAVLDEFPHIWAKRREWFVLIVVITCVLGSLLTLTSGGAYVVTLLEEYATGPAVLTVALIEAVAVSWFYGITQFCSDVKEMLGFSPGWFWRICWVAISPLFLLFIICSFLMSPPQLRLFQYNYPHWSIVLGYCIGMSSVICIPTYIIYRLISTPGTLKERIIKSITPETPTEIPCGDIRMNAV

One test concerns the target T1, 5-HT transporter (Rattus norvegicus, UniProt P31652).
T1 construct: synaptosomes of rat brain areas are freshly isolated; from tissue; host or cells: rat brain synaptosomes (P2 fraction) from marrow and pons
Description: Inhibition of 5-HT uptake in rat brain synaptosomes. It counts as biochemical. Particulars: Table III; rat, 1 μM.
Turning to `CCOc1ccccc1C(=O)N1CCC2(CC1)NC(CC(C)C)C(=O)N2CCCCOC(C)=O` (stereo not shown) [Example 310, Butyl 4-[8-(2-ethoxybenzoyl)-3-isobutyl-2-oxo-1,4,8-triazaspiro[4,5]dec-1-yl]acetate], the “Uptake 5-HT, rat, 1 μM, % inhibition” value is listed as 48%.
On the same count and under the same terms, to `C=CCN1C(=O)C(CCSC)NC12CCN(C(=O)c1ccc(S(N)(=O)=O)cc1)CC2` (stereo not shown) [Example 259, 4-[1-Allyl-3-(2-methylsulfanylethyl)-2-oxo-1,4,8-triazaspiro[4,5]decan-8-carbonyl]benzolsulfonamide] belongs 50%; to `CC(=O)OC(C(=O)N1CCC2(CC1)NCC(=O)N2Cc1cccc(C#N)c1)c1ccccc1` (stereo not shown) [Example 284, Ethyl 2-[1-(3-cyanobenzyl)-2-oxo-1,4,8-triazaspiro[4,5]dec-8-yl]-2-oxo-1-phenylacetate], 51%.

Still in this test, the particulars now being: characteristic data of the 5-HT transporter, rat synaptosomes.
Regarding `NCCc1c[nH]c2ccc(O)cc12` [Example 5-HT, reference compound], the Michaelis-Menten constant (Km) worked out at 0.084 ± 0.011 µM.

The test is the same for the next values; noted with them: read-out: Uptake 5-HT, % inhibition; Table III; rat, 1 μM.
On to `COC(=O)c1ccc(CN2C(=O)C(C(C)C)NC23CCN(C(=O)c2cccnc2SC)CC3)cc1` (stereo not shown) [Example 194, Methyl 4-[3-isopropyl-8-(2-methylsulfanylpyridin-3-carbonyl)-2-oxo-1,4,8-triazaspiro[4,5]dec-1-ylmethyl]benzoate], for which the inhibition at 1 µM was 32%.
On the same count and under the same terms, with `C#CCN1C(=O)C(Cc2ccccc2)NC12CCN(C(=O)COC)CC2` (stereo not shown) [Example 81, 3-Benzyl-8-(2-methoxyacetyl)-1-prop-2-ynyl-1,4,8-triazaspiro[4,5]decan-2-one] the figure was 43%; with `COc1ccc(C(=O)N2CCC3(CC2)NC(CCSC)C(=O)N3C)c(OC)c1` (stereo not shown) [Example 67, 8-(2,4-Dimethoxybenzoyl)-1-methyl-3-(2-methylsulfanylethyl)-1,4,8-triazaspiro[4,5]decan-2-one], 46%.
On to `CC(C)C1NC2(CCN(C(=O)c3cccc(SC(F)F)c3)CC2)N(Cc2ccccc2)C1=O` (stereo not shown) [Example 192, 1-Benzyl-8-(3-difluoromethylsulfanylbenzoyl)-3-isopropyl-1,4,8-triazaspiro[4,5]decan-2-one], for which the inhibition at 1 µM is 53%.
On the same count and under the same terms, with `CC(C)=CCN1C(=O)C(C(C)C)NC12CCN(C(=O)c1c(-c3c(F)cccc3Cl)noc1C)CC2` (stereo not shown) [Example 233, 8-[3-(2-Chloro-6-fluorophenyl)-5-methylisoxazole-4-carbonyl]-3-isopropyl-1-(3-methylbut-2-enyl)-1,4,8-triazaspiro[4,5]decan-2-one] the figure was 30%.
On the same count and under the same terms, to `CCCCN1C(=O)C(Cc2ccccc2)NC12CCN(C(=O)COC)CC2` (stereo not shown) [Example 190, 3-Benzyl-1-butyl-8-(2-methoxyacetyl)-1,4,8-triazaspiro[4,5]decan-2-one] belongs 43%; to `CCCCN1C(=O)C(CCSC)NC12CCN(C(=O)COCc1ccccc1)CC2` (stereo not shown) [Example 159, 8-(2-Benzyloxyacetyl)-1-butyl-3-(2-methylsulfanylethyl)-1,4,8-triazaspiro[4,5]decan-2-one], 40%.
Same read-out and setting: with `CCCCN1C(=O)C(CCSC)NC12CCN(C(=O)c1cc(C)oc1C)CC2` (stereo not shown) [Example 219, 1-Butyl-8-(2,5-dimethylfuran-3-carbonyl)-3-(2-methylsulfanylethyl)-1,4,8-triazaspiro[4,5]decan-2-one] the figure was 30%; with `Cc1nc(C(F)(F)F)ccc1C(=O)N1CCC2(CC1)NC(C(C)C)C(=O)N2Cc1ccccc1` (stereo not shown) [Example 178, 1-Benzyl-3-isopropyl-8-(2-methyl-6-trifluoromethylpyridin-3-carbonyl)-1,4,8-triazaspiro[4,5]decan-2-one], 49%; with `COc1cccc(C(=O)N2CCC3(CC2)NCC(=O)N3Cc2ccccc2F)c1` [Example 311, 1-(2-Fluorobenzyl)-8-(3-methoxybenzoyl)-1,4,8-triazaspiro[4,5]decan-2-one], 49%.
`CCOC(=O)CN1C(=O)C(Cc2ccccc2)NC12CCN(C(=O)C1CCC1)CC2` (stereo not shown) [Example 319, Ethyl (3-benzyl-8-cyclobutanecarbonyl-2-oxo-1,4,8-triazaspiro[4,5]dec-1-yl)acetate]: the inhibition at 1 µM came out at 70%.
Same read-out and setting: to `CCCCN1C(=O)C(Cc2ccccc2)NC12CCN(C(=O)c1cc(C(F)(F)F)ccc1C(F)(F)F)CC2` (stereo not shown) [Example 155, 3-Benzyl-8-(2,5-bis-trifluoromethylbenzoyl)-1-butyl-1,4,8-triazaspiro[4,5]decan-2-one] belongs 74%; to `CC(C)C1NC2(CCN(C(=O)c3cccnc3Cl)CC2)N(Cc2ccccc2)C1=O` (stereo not shown) [Example 157, 1-Benzyl-8-(2-chloropyridin-3-carbonyl)-3-isopropyl-1,4,8-triazaspiro[4,5]decan-2-one], 64%; to `CCCCN1C(=O)C(Cc2ccccc2)NC12CCN(C(=O)c1ccco1)CC2` (stereo not shown) [Example 153, 3-Benzyl-1-butyl-8-(furan-2-carbonyl)-1,4,8-triazaspiro[4,5]decan-2-one], 63%.
The same measure, in the same setting: to `CSCCC1NC2(CCN(C(=O)c3cccc4ccccc34)CC2)N(C)C1=O` (stereo not shown) [Example 187, 1-Methyl-3-(2-methylsulfanylethyl)-8-(naphthalin-1-carbonyl)-1,4,8-triazaspiro[4,5]decan-2-one] belongs 47%; to `CC(C)=CCN1C(=O)C(C(C)C)NC12CCN(C(=O)c1ccncc1)CC2` (stereo not shown) [Example 87, 3-Isopropyl-1-(3-methylbut-2-enyl)-8-(pyridin-4-carbonyl)-1,4,8-triazaspiro[4,5]decan-2-one], 56%.
Same read-out and setting: with `COC(=O)c1ccc(CN2C(=O)CNC23CCN(C(=O)Cc2ccccc2)CC3)cc1` [Example 283, Methyl 4-(2-oxo-8-phenylacetyl-1,4,8-triazaspiro[4,5]dec-1-ylmethyl)benzoate] the figure was 51%; with `CCCCN1C(=O)C(CCSC)NC12CCN(C(=O)C1CCCCC1)CC2` (stereo not shown) [Example 206, 1-Butyl-8-cyclohexanecarbonyl-3-(2-methylsulfanylethyl)-1,4,8-triazaspiro[4,5]decan-2-one], 55%.
In the case of `Cc1cc(C(=O)N2CCC3(CC2)NC(Cc2ccccc2)C(=O)N3C)no1` (stereo not shown) [Example 239, 3-Benzyl-1-methyl-8-(5-methylisoxazole-3-carbonyl)-1,4,8-triazaspiro[4,5]decan-2-one], the inhibition at 1 µM worked out at 36%.
As for `CCOC(=O)CC(=O)N1CCC2(CC1)NCC(=O)N2CCOc1ccccc1` [Example 74, Ethyl 3-oxo-3-[2-oxo-1-(2-phenoxyethyl)-1,4,8-triazaspiro[4,5]dec-8-yl]propionate], the inhibition at 1 µM amounted to 47%.
Same read-out and setting: with `COC(=O)c1ccc(CN2C(=O)CNC23CCN(C(=O)C2CCCC2)CC3)cc1` [Example 269, Methyl 4-(8-cyclopentanecarbonyl-2-oxo-1,4,8-triazaspiro[4,5]dec-1-ylmethyl)benzoate] the figure was 40%.
Same read-out and setting: to `O=C1NC2(CCN(C(=O)c3ccccc3Cl)CC2)NC1Cc1ccccc1` (stereo not shown) [Example 84, 3-Benzyl-8-(2-chlorobenzoyl)-1,4,8-triazaspiro[4,5]decan-2-one] belongs 64%; to `Cc1ccc(Cl)c(C(=O)N2CCC3(CC2)NC(Cc2ccccc2)C(=O)N3C)c1F` (stereo not shown) [Example 224, 3-Benzyl-8-(6-chloro-2-fluoro-3-methylbenzoyl)-1-methyl-1,4,8-triazaspiro[4,5]decan-2-one], 30%; to `CSCCC1NC2(CCN(C(=O)c3ccccn3)CC2)N(Cc2ccccc2F)C1=O` (stereo not shown) [Example 170, 1-(2-Fluorobenzyl)-3-(2-methylsulfanylethyl)-8-(pyridin-2-carbonyl)-1,4,8-triazaspiro[4,5]decan-2-one], 46%.
The same measure, in the same setting: with `Cc1nnsc1C(=O)N1CCC2(CC1)NC(C(C)C)C(=O)N2Cc1ccccc1` (stereo not shown) [Example 216, 1-Benzyl-3-isopropyl-8-(4-methyl[1,2,3]thiadiazole-5-carbonyl)-1,4,8-triazaspiro[4,5]decan-2-one] the figure was 55%.
`CCCCN1C(=O)C(Cc2ccccc2)NC12CCN(C(=O)c1ccccn1)CC2` (stereo not shown) [Example 202, 3-Benzyl-1-butyl-8-(pyridin-2-carbonyl)-1,4,8-triazaspiro[4,5]decan-2-one]: the inhibition at 1 µM was 56%.
As for `Cn1nc(C(C)(C)C)cc1C(=O)N1CCC2(CC1)NCC(=O)N2Cc1ccccc1F` [Example 313, 8-(5-tert-Butyl-2-methyl-2H-pyrazole-3-carbonyl)-1-(2-fluorobenzyl)-1,4,8-triazaspiro[4,5]decan-2-one], the inhibition at 1 µM was 60%.
Take `C=CCN1C(=O)C(CCSC)NC12CCN(C(=O)C(=O)OCC)CC2` (stereo not shown) [Example 261, Ethyl 2-[1-allyl-3-(2-methylsulfanylethyl)-2-oxo-1,4,8-triazaspiro[4,5]dec-8-yl]-2-oxo-acetate]: the inhibition at 1 µM was 39%.
The same measure, in the same setting: with `C=CCN1C(=O)C(C(C)C)NC12CCN(C(=O)c1ccccc1C)CC2` (stereo not shown) [Example 325, 1-Allyl-3-isopropyl-8-(2-methylbenzoyl)-1,4,8-triazaspiro[4,5]decan-2-one] the figure was 32%.
Same read-out and setting: with `CCOC(=O)CN1C(=O)C(Cc2ccccc2)NC12CCN(C(=O)c1ccccc1F)CC2` (stereo not shown) [Example 315, Ethyl [3-benzyl-8-(2-fluorobenzoyl)-2-oxo-1,4,8-triazaspiro[4,5]dec-1-yl]acetate] the figure was 61%; with `C#CCN1C(=O)C(CCSC)NC12CCN(C(=O)C1CCC1)CC2` (stereo not shown) [Example 152, 8-Cyclobutanecarbonyl-3-(2-methylsulfanylethyl)-1-prop-2-ynyl-1,4,8-triazaspiro[4,5]decan-2-one], 56%; with `Cc1cc(C(=O)N2CCC3(CC2)NCC(=O)N3Cc2ccccc2F)n(C(C)(C)C)n1` [Example 253, 8-(2-tert-Butyl-5-methyl-2H-pyrazole-3-carbonyl)-1-(2-fluorobenzyl)-1,4,8-triazaspiro[4,5]decan-2-one], 82%.
On the same count and under the same terms, to `COC(=O)c1ccc(CN2C(=O)CNC23CCN(C(=O)c2cccnc2Cl)CC3)cc1` [Example 252, Methyl 4-[8-(2-chloropyridin-3-carbonyl)-2-oxo-1,4,8-triazaspiro[4,5]dec-1-ylmethyl]benzoate] belongs 73%.
